Measurements published in patent US20050101595A1, “N-containing cycloalkyl-substituted amino-thiazole derivatives and pharmaceutical compositions for inhibiting cell proliferation and methods for their use” (PFIZER INC., priority 2003, published 2005).
Where a name gives a salt, the structure may show the parent alone. Read-outs that look alike come from different tables or passages of the source.

Tests used:
HCT-116 cell line = test: Inhibition of cell growth, tetrazolium salt (MTT) assay; type: cell-based; details: for IC50: Homo sapiens, HCT-116, 120 h, MTT, three to five days, read-out: HCT-116 IC50; for HCT-116 % Inhibition at 0.25 μM: 0.25 μM compound
Method in brief: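 McCoy's 5A cultures; 4 h pre-incubation; compound dilutions in 0.5% v/v DMSO; 3–5 d, 37° C, 5% CO2; MTT 0.2 mg/mL final, 4 h; formazan dissolved in DMSO, A540; vs 0.5% DMSO vehicle.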

CDK2/Cyclin A = CDK2/Cyclin A (Homo sapiens, UniProt P24941); test: Inhibition of CDK2/Cyclin A Retinoblastoma Kinase Activity; type: biochemical; details: for Ki: apparent Ki, CDK2/proteolyzed cyclin A, Rb fragment substrate, 25 μM ATP
Method in brief: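 Baculovirus-expressed CDK2 complexed with proteolyzed cyclin A (10 or 19 nM), Rb fragment substrate, 25 μM [32P/33P]ATP, HEPES pH 7.4, 30 °C for 60 or 75 min under initial-rate conditions. Filter capture and phosphorimager readout; apparent Ki fitted to competitive or tight-binding competitive inhibition.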

[1] = molecular target: human CDK4 and genetically truncated (1-264) cyclin D3 (Homo sapiens, UniProt P11802); test: Inhibition of CDK4/Cyclin D Retinoblastoma Kinase Activity; type: biochemical; details: for Ki: apparent Ki, CDK4/truncated cyclin D3, Rb fragment substrate, 25 μM ATP
Method in brief: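 Human CDK4/truncated cyclin D3 (1-264) complex from baculovirus-infected insect cells, 5 nM, phosphorylating Rb fragment (residues 386-928, His-tagged) with 25 μM [32/33P]ATP in HEPES pH 7.4, MgCl2, 2% DMSO at 30° C. for 20 min (60 min for tight binders). Filter-captured radioactivity by phosphorimager; apparent Ki from competitive or tight-binding fits.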

Sequence of human CDK4 and genetically truncated (1-264) cyclin D3 (P11802 whole entry, the tested form may be a part): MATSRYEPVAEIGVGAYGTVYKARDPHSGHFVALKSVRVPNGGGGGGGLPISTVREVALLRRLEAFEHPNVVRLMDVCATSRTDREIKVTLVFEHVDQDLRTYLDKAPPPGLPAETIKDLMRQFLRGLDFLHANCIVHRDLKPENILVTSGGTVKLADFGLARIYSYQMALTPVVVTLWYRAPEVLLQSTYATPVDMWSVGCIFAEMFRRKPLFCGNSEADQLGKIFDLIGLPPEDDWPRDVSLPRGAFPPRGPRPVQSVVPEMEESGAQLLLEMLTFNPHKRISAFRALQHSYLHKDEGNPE
Sequence of human CDK4 and genetically truncated (1-264) cyclin D3 (P30281 1-264 partner): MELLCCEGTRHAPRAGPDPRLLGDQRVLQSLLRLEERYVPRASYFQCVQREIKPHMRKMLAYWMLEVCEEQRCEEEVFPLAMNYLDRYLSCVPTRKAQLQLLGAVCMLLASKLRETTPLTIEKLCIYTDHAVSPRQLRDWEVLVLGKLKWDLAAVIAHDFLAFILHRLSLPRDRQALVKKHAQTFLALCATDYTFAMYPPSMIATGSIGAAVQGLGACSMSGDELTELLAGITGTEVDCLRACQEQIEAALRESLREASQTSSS

Compound | HCT-116 % Inhibition at 0.1 μM (HCT-116 cell line; HCT-116 cells, at 0.1 μM) [%] | HCT-116 5 Inhibition at 0.25 μM (HCT-116 cell line; HCT-116 cells) | CDK2 % Inhibition at 0.03 μM (CDK2/Cyclin A; at 0.03 μM) [%] | CDK4 % Inhibition at 0.03 μM ([1]; at 0.03 μM) [%] | IC50 (HCT-116 cell line; first HCT-116 column (c4)) [nM] | IC50 (HCT-116 cell line; second HCT-116 column (c5)) [nM] | Ki (CDK2/Cyclin A) [nM] | Ki [1] [nM] | further results
Nc1nc(NC2CCN(C(=O)c3ccc(C(F)(F)F)cc3C(F)(F)F)CC2)sc1C(=O)c1c(F)cccc1F [Example R38] | 0 | 33 | 0 | 35 | – | – | – | – | –
Nc1nc(NC2CCN(S(=O)(=O)c3ccc(F)cc3)CC2)sc1C(=O)c1c(F)cccc1F [Example F17, 1-{4-Amino-2-[1-(4-fluoro-benzenesulfonyl)-piperidin-4-ylamino]-thiazol-5-yl}1-(2,6-difluoro-phenyl)-methanone] | – | – | – | – | 70 | 230 | < 1 | 1.4 | –
Nc1nc(NC2CCN(C(=O)OC3CCCC3)CC2)sc1C(=O)c1c(F)cccc1F [Example R87] | 0 | 36 | 17 | 28 | – | – | – | – | –
Cn1ccnc1SCCCS(=O)(=O)N1CCC(Nc2nc(N)c(C(=O)c3c(F)cccc3F)s2)CC1 [Example K22, 1-(4-Amino-2-{1-[3-(1-methyl-1H-imidazol-2-ylsulfanyl)-propane-1-sulfonyl]-piperidin-4-ylamino}-thiazol-5-yl)-1-(2,6-difluoro-phenyl)-methanone.] | – | – | – | – | > 500 | > 500 | 4.8 | 7.3 | –
Nc1nc(NC2CCN(S(=O)(=O)c3ccc(CCNc4ccccc4O)nc3)CC2)sc1C(=O)c1c(F)cccc1F [Example N1, [4-Amino-2-(1-{6-[2-(2-hydroxy-phenylamino)-ethyl]-pyridine-3-sulfonyl}-piperidin-4-ylamino)-thiazol-5-yl]-(2,6-difluoro-phenyl)-methanone Trifluoroacetic Acid Salt.] | – | – | – | – | 860 | 1600 | 0.28 | 0.49 | –
[N-]=[N+]=C1C=C(S(=O)(=O)N2CCC(Nc3nc(N)c(C(=O)c4c(F)cccc4F)s3)CC2)c2ccccc2C1=O [Example P83] | – | – | – | – | – | – | – | – | HCT-116 % Inhibition at 0.1 μM (HCT-116 cell line; 0.1 μM compound, HCT-116, Table 3): 10%; HCT-116 % Inhibition at 0.25 μM (HCT-116 cell line; HCT-116, Table 3): 26%; CDK2 % Inhibition at 0.03 μM (CDK2/Cyclin A; 0.03 μM compound, Table 3): −11%; CDK4 % Inhibition at 0.03 μM ([1]; 0.03 μM compound, Table 3): 25%
CCC(=O)N1CCC(Nc2nc(N)c(C(=O)c3c(F)cccc3F)s2)CC1 [Example R172] | 0 | 49 | 34 | 49 | – | – | – | – | –
Cc1cc(C)cc(CC(=O)N2CCC(Nc3nc(N)c(C(=O)c4c(F)cccc4F)s3)CC2)c1 [Example D10, 1-{4-[4-Amino-5-(2,6-difluoro-benzoyl)-thiazol-2-ylamino]piperidin-1-yl}-2-(3,5-dimethyl-phenyl)-ethanone] | – | – | – | – | 60 | 200 | 85 | 62 | –
Nc1nc(NC2CCN(S(=O)(=O)c3ccc(C4=NCCO4)cc3)CC2)sc1C(=O)c1c(F)cccc1F [Example J5, 1-(4-Amino-2-{1-[4-(4,5-dihydro-oxazol-2-yl)-benzenesulfonyl]-piperidin-4-ylamino}-thiazol-5-yl)-1-(2,6-difluoro-phenyl)-methanone] | – | – | – | – | 210 | 480 | 2.8 | 3.9 | –
Nc1nc(NC2CCN(C(=O)Nc3ccc(Cl)c(C(F)(F)F)c3)CC2)sc1C(=O)c1c(F)cccc1F [Example O51] | – | – | – | – | – | – | – | – | HCT-116 % Inhibition at 0.25 μM (HCT-116 cell line; HCT-116, Table 2): 11%; CDK2 % Inhibition At 0.03 μM (CDK2/Cyclin A; 0.03 μM compound, Table 2): 30%; CDK4 % Inhibition at 0.03 μM ([1]; 0.03 μM compound, Table 2): 7%
CN(C)CCCS(=O)(=O)N1CCC(Nc2nc(N)c(C(=O)c3c(F)cccc3F)s2)CC1 [Example K4, 1-(4-Amino-2-{1-[3-(dimethylamino)propane-1-sulfonyl]-piperidin-4-ylamino}-thiazol-5-yl)-1-(2,6-difluoro-phenyl)-methanone.] | – | – | – | – | 410 | 1500 | 1.8 | 1.3 | –
N=C(N)c1ccc(S(=O)(=O)N2CCC(Nc3nc(N)c(C(=O)c4c(F)cccc4F)s3)CC2)cc1 [Example J3, 4-(4-{4-Amino-5-[1-(2,6-difluoro-phenyl)-methanoyl]-thiazol-2-ylamino}-piperidine-1-sulfonyl)-benzamidine] | – | – | – | – | > 5000 | > 5000 | < 1 | 0.25 | –
Nc1nc(NC2CCN(C(=O)CCc3ccccc3)CC2)sc1C(=O)c1c(F)cccc1F [Example R174] | 0 | 48 | 21 | 42 | – | – | – | – | –
